This note sets out measurements from patent US9233061B2 (AMOREPACIFIC CORPORATION, priority 2011, dated 2016).

A short description of the data set: Precipitation of caffeine at low temperature (4° C.). It is filed as physicochemical. To be noted: 3 days in a refrigerator (4° C.).

On to `NC(=O)c1cccnc1` [niacinamide, Niacinamide], for which the “Amount of niacinamide necessary for inhibiting precipitation” value runs as follows: (caffeine content 1-3%) 0.5-1 time based on caffeine; (caffeine content 3-5%) 1-1.5 times based on caffeine; (caffeine content 5-10%) 1-2 times based on caffeine.
